ChEMBL document CHEMBL3991601, “The target landscape of clinical kinase drugs” (Science, 2017)
pKd: −log10 of the molar value. The source made the active and inactive calls. Cut-off read from the data, not from the text of the source, for most assays here: actives have a measured Kd and inactives only a lower limit.

Key:
[1] = molecular target: Ribosomal protein S6 kinase alpha-1 (Homo sapiens, UniProt Q15418)
[2] = molecular target: Phosphatidylethanolamine-binding protein 1 (Homo sapiens, UniProt P30086)
[3] = molecular target: S-adenosylmethionine synthase isoform type-2 (Homo sapiens, UniProt P31153)
[4] = molecular target: Dual specificity tyrosine-phosphorylation-regulated kinase 1A (Homo sapiens, UniProt Q13627)
[5] = molecular target: T1, Phosphatidylinositol 5-phosphate 4-kinase type-2 alpha (Homo sapiens, UniProt P48426)
T1 sequence (P48426 whole entry): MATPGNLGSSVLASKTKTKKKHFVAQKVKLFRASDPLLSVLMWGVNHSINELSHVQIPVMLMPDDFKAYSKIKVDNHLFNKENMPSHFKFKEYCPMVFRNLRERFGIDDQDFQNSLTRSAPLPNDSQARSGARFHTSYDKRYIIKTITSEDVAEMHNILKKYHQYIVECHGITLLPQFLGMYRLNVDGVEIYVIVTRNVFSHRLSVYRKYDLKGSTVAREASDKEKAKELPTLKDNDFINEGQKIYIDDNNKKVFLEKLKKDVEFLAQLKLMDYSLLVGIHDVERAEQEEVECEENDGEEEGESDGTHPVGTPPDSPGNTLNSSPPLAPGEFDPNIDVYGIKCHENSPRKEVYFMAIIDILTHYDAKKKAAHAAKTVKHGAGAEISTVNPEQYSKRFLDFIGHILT

[6] = molecular target: T2, Exosome RNA helicase MTR4 (Homo sapiens, UniProt P42285)
T2 sequence (P42285 whole entry): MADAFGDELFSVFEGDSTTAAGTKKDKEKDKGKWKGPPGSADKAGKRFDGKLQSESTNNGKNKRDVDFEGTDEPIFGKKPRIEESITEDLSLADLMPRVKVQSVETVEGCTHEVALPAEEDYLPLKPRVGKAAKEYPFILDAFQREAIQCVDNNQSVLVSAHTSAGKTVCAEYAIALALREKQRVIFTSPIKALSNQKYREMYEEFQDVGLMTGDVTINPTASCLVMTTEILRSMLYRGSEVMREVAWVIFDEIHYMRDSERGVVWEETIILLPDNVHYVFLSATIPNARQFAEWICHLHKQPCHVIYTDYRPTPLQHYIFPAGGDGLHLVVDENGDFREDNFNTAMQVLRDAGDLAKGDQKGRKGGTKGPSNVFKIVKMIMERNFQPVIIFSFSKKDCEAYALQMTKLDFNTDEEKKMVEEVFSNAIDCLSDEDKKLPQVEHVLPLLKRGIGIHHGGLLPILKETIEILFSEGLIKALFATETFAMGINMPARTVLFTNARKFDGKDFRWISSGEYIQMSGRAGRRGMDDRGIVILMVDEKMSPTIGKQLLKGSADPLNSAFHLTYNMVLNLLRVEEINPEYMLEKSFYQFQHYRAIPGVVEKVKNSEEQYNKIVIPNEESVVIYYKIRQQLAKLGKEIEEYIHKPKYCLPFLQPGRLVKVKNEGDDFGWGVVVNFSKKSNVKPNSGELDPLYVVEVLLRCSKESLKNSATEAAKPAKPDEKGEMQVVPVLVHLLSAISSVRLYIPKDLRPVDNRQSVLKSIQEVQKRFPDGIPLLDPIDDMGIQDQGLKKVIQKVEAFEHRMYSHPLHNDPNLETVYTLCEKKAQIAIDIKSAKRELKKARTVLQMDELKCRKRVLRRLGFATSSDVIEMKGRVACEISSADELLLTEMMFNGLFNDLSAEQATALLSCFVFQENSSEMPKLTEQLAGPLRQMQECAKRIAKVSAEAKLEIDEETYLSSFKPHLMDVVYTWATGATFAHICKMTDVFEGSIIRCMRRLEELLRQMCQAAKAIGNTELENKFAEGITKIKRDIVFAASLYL

[7] = molecular target: Serine/threonine-protein kinase pim-1 (Homo sapiens, UniProt P11309)
[8] = molecular target: Cyclin-dependent kinase 17 (Homo sapiens, UniProt Q00537)
[9] = molecular target: BMP-2-inducible protein kinase (Homo sapiens, UniProt Q9NSY1)
[10] = molecular target: T3, Thyroid hormone receptor-associated protein 3 (Homo sapiens, UniProt Q9Y2W1)
T3 sequence (Q9Y2W1 whole entry): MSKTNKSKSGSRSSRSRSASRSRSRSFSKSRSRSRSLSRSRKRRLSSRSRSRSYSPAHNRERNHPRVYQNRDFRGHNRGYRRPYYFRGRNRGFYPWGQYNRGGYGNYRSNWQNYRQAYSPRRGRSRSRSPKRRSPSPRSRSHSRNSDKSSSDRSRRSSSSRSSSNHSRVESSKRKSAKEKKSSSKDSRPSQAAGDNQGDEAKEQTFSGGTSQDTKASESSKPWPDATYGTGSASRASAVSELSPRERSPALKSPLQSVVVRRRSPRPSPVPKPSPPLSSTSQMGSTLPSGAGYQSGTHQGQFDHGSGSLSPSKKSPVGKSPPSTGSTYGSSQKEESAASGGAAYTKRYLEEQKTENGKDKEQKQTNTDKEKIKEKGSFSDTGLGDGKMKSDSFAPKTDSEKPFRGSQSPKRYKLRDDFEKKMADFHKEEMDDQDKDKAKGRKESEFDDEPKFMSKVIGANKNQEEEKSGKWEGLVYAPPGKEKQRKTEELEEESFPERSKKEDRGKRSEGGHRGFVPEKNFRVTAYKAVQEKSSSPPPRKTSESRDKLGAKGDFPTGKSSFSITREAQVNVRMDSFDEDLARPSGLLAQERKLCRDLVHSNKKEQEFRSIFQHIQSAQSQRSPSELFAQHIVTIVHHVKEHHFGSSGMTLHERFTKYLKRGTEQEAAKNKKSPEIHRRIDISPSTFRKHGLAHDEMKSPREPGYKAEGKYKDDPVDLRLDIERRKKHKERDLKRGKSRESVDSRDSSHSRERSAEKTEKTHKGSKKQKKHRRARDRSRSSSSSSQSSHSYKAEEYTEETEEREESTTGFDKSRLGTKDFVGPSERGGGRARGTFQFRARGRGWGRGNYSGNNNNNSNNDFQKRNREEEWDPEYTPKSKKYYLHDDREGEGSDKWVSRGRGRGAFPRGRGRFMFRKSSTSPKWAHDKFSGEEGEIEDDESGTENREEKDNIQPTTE

[11] = molecular target: Rho-associated protein kinase 2 (Homo sapiens, UniProt O75116)
[12] = molecular target: Mitogen-activated protein kinase kinase kinase 1 (Homo sapiens, UniProt Q13233)
[13] = molecular target: STE20-like serine/threonine-protein kinase (Homo sapiens, UniProt Q9H2G2)
Note: in the data inactive means no Kd found up to 30 µM.

Sequence of Ribosomal protein S6 kinase alpha-1 (Q15418 whole entry): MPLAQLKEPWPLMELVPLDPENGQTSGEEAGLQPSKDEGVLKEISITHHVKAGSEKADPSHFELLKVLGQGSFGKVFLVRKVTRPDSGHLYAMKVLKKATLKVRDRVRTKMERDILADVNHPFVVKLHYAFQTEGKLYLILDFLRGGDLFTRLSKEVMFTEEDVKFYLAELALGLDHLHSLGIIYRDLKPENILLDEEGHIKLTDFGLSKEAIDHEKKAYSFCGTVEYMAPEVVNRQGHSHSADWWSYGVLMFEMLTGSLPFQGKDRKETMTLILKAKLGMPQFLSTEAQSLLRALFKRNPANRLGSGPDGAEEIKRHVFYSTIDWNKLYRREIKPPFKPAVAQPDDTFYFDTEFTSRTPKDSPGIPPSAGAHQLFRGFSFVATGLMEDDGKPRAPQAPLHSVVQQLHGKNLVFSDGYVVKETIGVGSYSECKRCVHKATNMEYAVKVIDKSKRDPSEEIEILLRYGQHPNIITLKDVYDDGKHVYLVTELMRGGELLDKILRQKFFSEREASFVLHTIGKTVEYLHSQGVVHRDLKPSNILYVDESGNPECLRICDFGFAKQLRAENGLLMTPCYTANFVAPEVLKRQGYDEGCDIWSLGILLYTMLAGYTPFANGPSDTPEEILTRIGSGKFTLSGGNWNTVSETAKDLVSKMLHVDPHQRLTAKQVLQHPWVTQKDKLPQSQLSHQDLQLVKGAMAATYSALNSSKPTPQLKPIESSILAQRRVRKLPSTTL
Sequence of Cyclin-dependent kinase 17 (Q00537 whole entry): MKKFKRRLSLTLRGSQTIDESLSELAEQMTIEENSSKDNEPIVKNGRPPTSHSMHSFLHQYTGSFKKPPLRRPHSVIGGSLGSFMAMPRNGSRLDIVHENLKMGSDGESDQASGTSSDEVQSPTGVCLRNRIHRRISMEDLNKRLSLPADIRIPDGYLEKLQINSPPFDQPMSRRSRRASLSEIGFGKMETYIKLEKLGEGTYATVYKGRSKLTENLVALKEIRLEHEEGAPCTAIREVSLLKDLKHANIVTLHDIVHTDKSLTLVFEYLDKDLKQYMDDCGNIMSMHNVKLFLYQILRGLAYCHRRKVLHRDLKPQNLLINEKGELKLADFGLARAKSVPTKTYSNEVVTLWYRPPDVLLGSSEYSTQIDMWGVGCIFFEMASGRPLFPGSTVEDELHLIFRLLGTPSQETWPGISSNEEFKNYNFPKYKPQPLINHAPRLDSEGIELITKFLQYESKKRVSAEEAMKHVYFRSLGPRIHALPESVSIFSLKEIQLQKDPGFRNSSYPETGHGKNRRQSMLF
Sequence of Phosphatidylethanolamine-binding protein 1 (P30086 whole entry, canonical isoform): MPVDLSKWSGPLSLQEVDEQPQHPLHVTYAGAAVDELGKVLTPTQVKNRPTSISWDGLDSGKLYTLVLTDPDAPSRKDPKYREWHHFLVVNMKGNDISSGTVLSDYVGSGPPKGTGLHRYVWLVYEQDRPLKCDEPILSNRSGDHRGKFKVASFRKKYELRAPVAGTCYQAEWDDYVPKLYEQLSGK
Sequence of Rho-associated protein kinase 2 (O75116 whole entry): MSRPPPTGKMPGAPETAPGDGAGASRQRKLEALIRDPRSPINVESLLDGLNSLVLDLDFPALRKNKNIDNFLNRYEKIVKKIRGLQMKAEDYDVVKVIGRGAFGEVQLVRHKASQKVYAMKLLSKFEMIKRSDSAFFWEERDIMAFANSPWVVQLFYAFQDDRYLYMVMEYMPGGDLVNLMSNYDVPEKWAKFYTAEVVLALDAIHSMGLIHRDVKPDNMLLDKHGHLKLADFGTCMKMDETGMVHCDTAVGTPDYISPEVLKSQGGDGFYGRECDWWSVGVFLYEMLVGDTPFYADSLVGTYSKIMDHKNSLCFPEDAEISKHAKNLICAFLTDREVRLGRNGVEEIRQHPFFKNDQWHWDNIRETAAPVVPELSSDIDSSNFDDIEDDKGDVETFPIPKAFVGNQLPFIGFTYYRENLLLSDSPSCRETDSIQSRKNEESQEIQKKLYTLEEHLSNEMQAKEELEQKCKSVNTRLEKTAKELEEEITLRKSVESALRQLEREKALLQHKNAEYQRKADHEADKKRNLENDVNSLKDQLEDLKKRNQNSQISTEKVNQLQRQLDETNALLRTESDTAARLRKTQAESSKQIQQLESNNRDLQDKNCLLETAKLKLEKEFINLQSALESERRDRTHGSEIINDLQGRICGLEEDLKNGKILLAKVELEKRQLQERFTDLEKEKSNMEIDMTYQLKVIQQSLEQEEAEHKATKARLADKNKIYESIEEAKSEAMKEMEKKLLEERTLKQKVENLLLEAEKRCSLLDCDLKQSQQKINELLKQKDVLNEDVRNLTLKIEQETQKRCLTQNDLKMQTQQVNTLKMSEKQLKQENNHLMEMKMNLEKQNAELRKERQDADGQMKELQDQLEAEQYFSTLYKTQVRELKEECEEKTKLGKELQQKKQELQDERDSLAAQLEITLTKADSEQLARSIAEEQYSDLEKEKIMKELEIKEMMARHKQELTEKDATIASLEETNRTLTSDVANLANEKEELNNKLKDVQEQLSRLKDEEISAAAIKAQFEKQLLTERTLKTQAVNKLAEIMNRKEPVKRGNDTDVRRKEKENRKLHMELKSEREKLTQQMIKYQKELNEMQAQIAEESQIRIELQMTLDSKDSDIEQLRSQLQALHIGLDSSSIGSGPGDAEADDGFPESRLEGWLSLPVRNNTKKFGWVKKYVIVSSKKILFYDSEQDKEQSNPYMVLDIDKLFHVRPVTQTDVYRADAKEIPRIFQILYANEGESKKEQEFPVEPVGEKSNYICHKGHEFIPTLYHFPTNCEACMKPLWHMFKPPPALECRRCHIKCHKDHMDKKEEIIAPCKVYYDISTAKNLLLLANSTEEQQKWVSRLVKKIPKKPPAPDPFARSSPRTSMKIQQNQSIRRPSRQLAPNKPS
Sequence of S-adenosylmethionine synthase isoform type-2 (P31153 whole entry, canonical isoform): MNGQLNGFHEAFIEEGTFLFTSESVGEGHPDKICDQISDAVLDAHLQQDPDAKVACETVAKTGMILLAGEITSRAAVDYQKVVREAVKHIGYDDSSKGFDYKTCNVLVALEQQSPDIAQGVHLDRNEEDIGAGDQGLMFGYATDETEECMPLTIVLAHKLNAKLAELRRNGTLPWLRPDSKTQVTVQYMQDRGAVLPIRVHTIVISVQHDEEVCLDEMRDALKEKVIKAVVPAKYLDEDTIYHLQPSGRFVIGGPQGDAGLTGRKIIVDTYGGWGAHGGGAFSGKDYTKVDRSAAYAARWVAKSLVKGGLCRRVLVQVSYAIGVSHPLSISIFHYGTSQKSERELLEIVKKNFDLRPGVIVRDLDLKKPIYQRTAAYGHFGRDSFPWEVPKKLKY
Sequence of STE20-like serine/threonine-protein kinase (Q9H2G2 whole entry): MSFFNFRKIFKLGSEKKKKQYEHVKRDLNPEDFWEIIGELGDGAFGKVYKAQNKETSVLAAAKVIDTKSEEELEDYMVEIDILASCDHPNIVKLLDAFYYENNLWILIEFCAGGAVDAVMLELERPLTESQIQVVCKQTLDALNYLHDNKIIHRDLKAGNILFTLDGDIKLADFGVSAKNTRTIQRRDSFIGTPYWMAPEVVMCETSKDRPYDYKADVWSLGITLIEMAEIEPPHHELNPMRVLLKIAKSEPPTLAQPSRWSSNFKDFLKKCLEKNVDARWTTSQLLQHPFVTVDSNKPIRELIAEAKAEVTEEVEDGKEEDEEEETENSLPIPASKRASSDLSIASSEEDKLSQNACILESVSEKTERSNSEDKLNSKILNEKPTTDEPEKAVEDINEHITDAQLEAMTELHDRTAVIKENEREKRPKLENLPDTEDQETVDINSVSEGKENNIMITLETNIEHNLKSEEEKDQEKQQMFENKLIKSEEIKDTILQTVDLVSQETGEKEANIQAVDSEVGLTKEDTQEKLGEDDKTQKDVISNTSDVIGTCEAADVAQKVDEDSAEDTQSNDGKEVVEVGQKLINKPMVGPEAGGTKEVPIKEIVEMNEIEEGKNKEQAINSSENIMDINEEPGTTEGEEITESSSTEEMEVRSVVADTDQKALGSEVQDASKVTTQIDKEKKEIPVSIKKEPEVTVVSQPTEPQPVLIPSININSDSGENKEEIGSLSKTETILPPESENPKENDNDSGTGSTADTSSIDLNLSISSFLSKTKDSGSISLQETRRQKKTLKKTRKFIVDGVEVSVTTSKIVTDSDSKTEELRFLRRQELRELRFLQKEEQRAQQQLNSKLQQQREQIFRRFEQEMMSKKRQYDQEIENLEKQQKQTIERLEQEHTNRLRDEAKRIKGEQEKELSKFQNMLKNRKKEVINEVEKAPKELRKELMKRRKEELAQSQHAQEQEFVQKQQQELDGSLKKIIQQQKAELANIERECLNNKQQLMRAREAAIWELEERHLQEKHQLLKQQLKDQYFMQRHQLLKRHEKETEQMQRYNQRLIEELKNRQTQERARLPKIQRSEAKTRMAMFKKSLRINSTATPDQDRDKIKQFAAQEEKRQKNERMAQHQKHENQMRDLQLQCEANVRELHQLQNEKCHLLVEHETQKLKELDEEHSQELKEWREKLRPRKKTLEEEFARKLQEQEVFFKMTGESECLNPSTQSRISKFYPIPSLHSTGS
Sequence of Serine/threonine-protein kinase pim-1 (P11309 whole entry): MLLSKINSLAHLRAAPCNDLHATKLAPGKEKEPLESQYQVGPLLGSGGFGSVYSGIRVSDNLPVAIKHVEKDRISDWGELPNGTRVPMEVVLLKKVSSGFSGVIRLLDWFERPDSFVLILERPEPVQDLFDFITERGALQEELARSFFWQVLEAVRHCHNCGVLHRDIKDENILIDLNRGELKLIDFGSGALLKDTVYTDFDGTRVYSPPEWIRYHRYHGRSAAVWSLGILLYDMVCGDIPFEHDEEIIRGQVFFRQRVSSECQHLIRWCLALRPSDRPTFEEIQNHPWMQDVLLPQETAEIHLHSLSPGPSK

Compound | Kd [1] | Kd [2] | Kd [3] | Kd [4] | Kd [5] | Kd [6] | Kd [7] | Kd [8] | Kd [9] | Kd [10] | Kd [11] | Kd [12] | Kd [13] | pKd [9] | pKd [12]
NC1(c2ccc(-c3nc4ccn5c(=O)[nH]nc5c4cc3-c3ccccc3)cc2)CCC1 [MK-2206] | > 30 µM (inactive) | > 30 µM (inactive) | > 30 µM (inactive) | > 30 µM (inactive) | > 30 µM (inactive) | > 30 µM (inactive) | > 30 µM (inactive) | > 30 µM (inactive) | > 30 µM (inactive) | > 30 µM (inactive) | > 30 µM (inactive) | > 30 µM (inactive) | > 30 µM (inactive) |  | 
Cn1cc(-c2cnc3ccc4ccc(CS(=O)(=O)NCc5ccccn5)cc4c(=O)c3c2)cn1 [MK-8033] | > 30 µM (inactive) | > 30 µM (inactive) | > 30 µM (inactive) | > 30 µM (inactive) | > 30 µM (inactive) | > 30 µM (inactive) | > 30 µM (inactive) | > 30 µM (inactive) | > 30 µM (inactive) | > 30 µM (inactive) | > 30 µM (inactive) | > 30 µM (inactive) | > 30 µM (inactive) |  | 
Cc1nc(Nc2n[nH]c3c2CN(C(=O)N[C@H](CN(C)C)c2ccccc2)C3(C)C)c2sccc2n1 [PF-03758309] | 0.82 µM (active) | > 30 µM (inactive) | > 30 µM (inactive) | > 30 µM (inactive) | > 30 µM (inactive) | > 30 µM (inactive) | > 30 µM (inactive) | 0.014 µM (active) | 2.54 µM (active) | > 30 µM (inactive) | > 30 µM (inactive) | > 30 µM (inactive) | > 30 µM (inactive) |  | 
N#CC1(c2ccc(NC(=O)c3cccnc3NCc3ccncc3)cc2)CCCC1 [RIVOCERANIB] | > 30 µM (inactive) | > 30 µM (inactive) | > 30 µM (inactive) | > 30 µM (inactive) | > 30 µM (inactive) | > 30 µM (inactive) | > 30 µM (inactive) | > 30 µM (inactive) | > 30 µM (inactive) | > 30 µM (inactive) | > 30 µM (inactive) | > 30 µM (inactive) | > 30 µM (inactive) |  | 
O=c1[nH]ccc2cc(OC3CCNCC3)ccc12 [SAR-407899 FREE BASE] | > 30 µM (inactive) | > 30 µM (inactive) | > 30 µM (inactive) | > 30 µM (inactive) | > 30 µM (inactive) | > 30 µM (inactive) | > 30 µM (inactive) | > 30 µM (inactive) |  | > 30 µM (inactive) | 0.016 µM (active) | > 30 µM (inactive) | > 30 µM (inactive) | 7.89 | 
Cn1cc(-c2cnn3c(N)c(Br)c([C@@H]4CCCNC4)nc23)cn1 [SCH-900776] | > 30 µM (inactive) | > 30 µM (inactive) | > 30 µM (inactive) | > 30 µM (inactive) | > 30 µM (inactive) | > 30 µM (inactive) | 19.3 µM (active) | > 30 µM (inactive) |  | > 30 µM (inactive) | > 30 µM (inactive) |  | 2.08 µM (active) | 5.57 | 5.90
CO[C@H]1C[C@@H]2CC[C@@H](C)[C@@](O)(O2)C(=O)C(=O)N2CCCC[C@H]2C(=O)O[C@H]([C@H](C)C[C@@H]2CC[C@@H](O)[C@H](OC)C2)CC(=O)[C@H](C)/C=C(\C)[C@@H](O)[C@@H](OC)C(=O)[C@H](C)C[C@H](C)/C=C/C=C/C=C/1C [SIROLIMUS] | > 30 µM (inactive) | > 30 µM (inactive) | > 30 µM (inactive) | > 30 µM (inactive) | > 30 µM (inactive) | > 30 µM (inactive) | > 30 µM (inactive) | > 30 µM (inactive) | > 30 µM (inactive) | > 30 µM (inactive) | > 30 µM (inactive) | > 30 µM (inactive) | > 30 µM (inactive) |  | 
CO[C@H]1C[C@@H]2CC[C@@H](C)[C@@](O)(O2)C(=O)C(=O)N2CCCC[C@H]2C(=O)O[C@H]([C@H](C)C[C@@H]2CC[C@@H](OC(=O)C(C)(CO)CO)[C@H](OC)C2)CC(=O)[C@H](C)/C=C(\C)[C@@H](O)[C@@H](OC)C(=O)[C@H](C)C[C@H](C)/C=C/C=C/C=C/1C [TEMSIROLIMUS] | > 30 µM (inactive) | > 30 µM (inactive) | > 30 µM (inactive) | > 30 µM (inactive) | > 30 µM (inactive) | > 30 µM (inactive) | > 30 µM (inactive) | > 30 µM (inactive) | > 30 µM (inactive) | > 30 µM (inactive) | > 30 µM (inactive) | > 30 µM (inactive) | > 30 µM (inactive) |  | 
COc1cc2c(Nc3ccc(Cl)c(Cl)c3F)ncnc2cc1OC[C@@H]1C[C@@H]2CN(C)C[C@@H]2C1 [TESEVATINIB] | > 30 µM (inactive) | > 30 µM (inactive) | > 30 µM (inactive) | > 30 µM (inactive) | > 30 µM (inactive) | > 30 µM (inactive) | > 30 µM (inactive) | > 30 µM (inactive) | > 30 µM (inactive) | > 30 µM (inactive) | > 30 µM (inactive) | 1.74 µM (active) | 3.42 µM (active) |  | 
O=C(Cc1ccc(-c2ccc(OCCN3CCOCC3)cc2)cn1)NCc1ccccc1 [TIRBANIBULIN] | > 30 µM (inactive) | > 30 µM (inactive) | > 30 µM (inactive) | > 30 µM (inactive) | > 30 µM (inactive) | > 30 µM (inactive) | > 30 µM (inactive) | > 30 µM (inactive) | > 30 µM (inactive) | > 30 µM (inactive) | > 30 µM (inactive) | > 30 µM (inactive) | > 30 µM (inactive) |  | 
